# Measurements from ChEMBL document CHEMBL3352577, “A simple and widely applicable hit validation strategy for protein-protein interaction inhibitors based on a quantitative ligand displacement assay” (Bioorg Med Chem Lett, 2014).
# pIC50, pKi: −log10 of the molar value.
# Legend:
# Bcl-2-like protein 1 [1] = target: T1, Bcl-2-like protein 1 (Homo sapiens, UniProt Q07817); experiment: Displacement of F-bid from human recombinant N-terminal His-tagged Bcl-xL (1 to 209) expressed in Escherichia coli BL21(DE3) after 30 mins by TR-FRET assay
# T1 sequence (Q07817 whole entry): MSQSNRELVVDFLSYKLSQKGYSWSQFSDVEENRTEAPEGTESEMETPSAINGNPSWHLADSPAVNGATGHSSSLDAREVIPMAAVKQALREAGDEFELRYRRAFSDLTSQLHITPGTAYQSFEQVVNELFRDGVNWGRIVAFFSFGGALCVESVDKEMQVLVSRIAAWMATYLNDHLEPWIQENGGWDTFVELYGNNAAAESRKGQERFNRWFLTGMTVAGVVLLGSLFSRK
# [2] = target: T2, Induced myeloid leukemia cell differentiation protein Mcl-1 (Homo sapiens, UniProt Q07820); experiment: Displacement of F-bid from human recombinant N-terminal His-tagged Mcl-1 (1 to 319) expressed in Escherichia coli BL21(DE3) after 120 mins by TR-FRET assay
# T2 sequence (Q07820 whole entry): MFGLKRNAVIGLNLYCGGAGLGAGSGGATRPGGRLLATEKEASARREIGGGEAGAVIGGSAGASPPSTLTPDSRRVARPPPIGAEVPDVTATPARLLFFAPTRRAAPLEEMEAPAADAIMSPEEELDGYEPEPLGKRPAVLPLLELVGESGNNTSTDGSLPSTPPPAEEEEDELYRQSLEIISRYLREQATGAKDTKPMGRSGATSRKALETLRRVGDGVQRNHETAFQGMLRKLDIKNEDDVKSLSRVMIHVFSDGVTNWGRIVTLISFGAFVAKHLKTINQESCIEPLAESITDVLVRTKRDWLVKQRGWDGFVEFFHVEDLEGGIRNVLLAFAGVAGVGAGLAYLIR
# Bcl-2-like protein 1 [3] = target: T1, Bcl-2-like protein 1; experiment: Displacement of F-bid from human recombinant N-terminal His-tagged Bcl-xL (1 to 209) expressed in Escherichia coli BL21(DE3) after 2 hrs by fluorescence polarization assay
# Bcl-2-like protein 1 [4] = target: T1, Bcl-2-like protein 1; experiment: Reversible inhibition of human recombinant N-terminal His-tagged Bcl-xL (1 to 209) expressed in Escherichia coli BL21(DE3) after 30 to 120 mins by TR-FRET assay in presence of F-bid
# Bcl-2-like protein 1 [5] = target: T1, Bcl-2-like protein 1; experiment: Displacement of F-bid from human recombinant N-terminal His-tagged Bcl-xL (1 to 209) expressed in Escherichia coli BL21(DE3) after 120 mins by TR-FRET assay
# [6] = target: T2, Induced myeloid leukemia cell differentiation protein Mcl-1; experiment: Displacement of F-bid from human recombinant N-terminal His-tagged Mcl-1 (1 to 319) expressed in Escherichia coli BL21(DE3) after 2 hrs by fluorescence polarization assay
structure (smiles),measurement,setting,value
O=C(CC(Sc1ccc(Cl)cc1)C(=O)O)c1ccc(C2CCCCC2)cc1 (centres undefined),pIC50,Bcl-2-like protein 1 [1],4.74
same,pKi,[2],4.92
same,pKi,Bcl-2-like protein 1 [3],5.33
same,pKi,Bcl-2-like protein 1 [4],4.89
same,pIC50,Bcl-2-like protein 1 [5],4.72
same,pKi,Bcl-2-like protein 1 [5],4.92
same,pKi,[6],4.85
O=C(CC(Cc1ccc(Cl)cc1)C(=O)O)c1ccc(C2CCCCC2)cc1 (centres undefined),pKi,[2],4.70
same,pKi,Bcl-2-like protein 1 [4],5.05
